Results taken from US12285011B2, “Insecticidal formulation for vector and pest control with increased contact efficacy” (DISCOVERY PURCHASER CORPORATION, priority 2018, dated 2025).
Where two headings read alike, the source gives them in different places.

Experiment: Water solubility at pH 7 (HPLC-MS)
Assay type: physicochemical
Conditions: thermodynamic from solid
Procedure: In another preferred embodiment of the invention the insecticidal active ingredient—matrix particles comprise one insecticidal active ingredient with the above indicated physicochemical properties. The melting points according to the invention are measured under standard conditions (1 atmosphere). Water solubility are indicated in percentage referring to the quotient of (g) gram insecticidal active ingredient/100 ml water. Water solubility is preferably measured with liquid chromatography e.g. with a HPLC-MS system (at 20° C., 1 atmosphere and pH 7, see also example 1 as a reference).
The reported water solubilities as shown in table 1 are determined as follows: Preparation of calibration standards: A 1000 ppm solution of the analyte in acetonitrile is prepared and from this at least three calibration points are obtained by dilution with acetonitrile going down to 0.01 mg/L, if needed. Sample Preparation: Two cavities of a deepwell are filled each with about 0.6 mg of homogenized sample and 500 μL of a pH 7 phosphate buffer is added. A glass pearl is added to each cavity, the deepwell is sealed and shaken for at least 24 h at 1600 rpm at 23° C. After the shaking procedure the solution is filtered. Aliquots of the filtrates are analysed via a HPLC-MS system with DAD and MS detection. The peak areas of all selected single DAD and ion traces are taken for the calculations. The calculation is done by external calibration against the areas of the standard samples (linear regression). The mean of all calculated values gives the water solubility of the active ingredient.

[1] = aqueous buffer, pH 7 phosphate buffer, shaken at least 24 h at 23° C., technical grade active ingredient, read-out: water solubility at pH 7

For `CN(C(=O)c1cc(-c2cnn(-c3c(Cl)cc(C(F)(C(F)(F)F)C(F)(F)F)cc3Cl)c2)cnc1Cl)C1CC1` [2-chloro-N-cyclopropyl-5-{1-[2,6-dichloro-4-(1,1,1,2,3,3,3-heptafluoropropan-2-yl)phenyl]-1H-pyrazol-4-yl}-N-methylnicotinamide], the solubility [1] was less than 0.01 µg/mL.

`CCN1OC[C@@H](NC(=O)c2ccc(C3=NO[C@@](c4cc(Cl)c(F)c(Cl)c4)(C(F)(F)F)C3)cc2C)C1=O` [4-[(5S)-5-(3,5-dichloro-4-fluorophenyl)-5-(trifluoromethyl)-4,5-dihydro-1,2-oxazol-3-yl]-N-[(4R)-2-ethyl-3-oxo-1,2-oxazolidin-4-yl]-2-methylbenzamide] showed a solubility (23 °C, pH 7, aqueous buffer) of less than 0.01 µg/mL.

With `CN(C(=O)c1ccccc1)c1cccc(C(=O)Nc2c(Br)cc(C(F)(C(F)(F)F)C(F)(F)F)cc2C(F)(F)F)c1F` [broflanilide, 3-[benzoyl(methyl)amino]-N-[2-bromo-4-(1,1,1,2,3,3,3-heptafluoropropan-2-yl)-6-(trifluoromethyl)phenyl]-2-fluorobenzamide, reference compound] the solubility [1] was less than 0.01 µg/mL.
